Test results taken from publication PMC10857906, “PROTAC-mediated NR4A1 degradation as a novel strategy for cancer immunotherapy” (The Journal of Experimental Medicine, 2024).

Key:
[1] = tested on: immune cells in the TME, spleen and blood; assay: Immune profile by flow cytometry in B16F10 tumor-bearing mice; type: in vivo, mouse
Description: (§1) For syngeneic tumor models, 5 × 10^5 cells MC38, Yumm1.7, and Yummer1.7, 1 × 10^5 cells of B16F10 were resuspended in PBS and implanted into 7–9-wk-old mice subcutaneously. For the tumor inhibition experiment, mice were treated with 1.8 mg/kg NR-V04 or 0.75 mg/kg celastrol by i.p. injection twice weekly. For the immune profile experiment, once tumors reached 0.5 cm in diameter, mice were treated with 1.8 mg/kg NR-V04 by i.p. injection twice weekly. For the toxicity experiment, male and female non-tumor-bearing mice were treated with 2 mg/kg NR-V04 for two doses in the first week and 5 mg/kg for another two doses in the second week. Blood samples were taken from the submandibular (facial) vein before each treatment and 42 days later for hematological analysis, and body weight was measured twice per week up to day 42. Mice were euthanized in accordance with the IACUC protocol once the largest tumors reached 2 cm in diameter, and tissues were collected for further analysis.
Mouse tumors were excised and ∼200 mg of tumor tissue was enzymatically and mechanically digested using the mouse Tumor Dissociation Kit (Miltenyi Biotec) to obtain a single-cell suspension. Human tumor samples and sections were enzymatically and mechanically digested using the human Tumor Dissociation Kit (Miltenyi Biotec) to obtain single-cell suspension. Red blood cells were lysed using ACK lysis buffer and mononuclear cells were isolated by density gradient using SepMate Tubes (StemCell Technologies) and Lymphoprep density gradient media (StemCell Technologies). Mouse cells were then washed and incubated with combinations of the following antibodies: anti-mouse CD62L-BV785 (clone MEL-14), anti-mouse MHCII I-A/I-E-BB515 (Clone 2G9, 1:400; BD Biosciences), anti-mouse CD11B-PEdazzle 594 (clone M1/70, 1:200), anti-mouse CD45-AF532 (clone 30F.11), anti-mouse CD3-APC/Cy7 (clone 17A2), anti-mouse CD8-BV510 (clone 53-6.7), anti-mouse CD4-BV605 (clone GK1.5), anti-mouse NK1.1-AF700 (clone PK136), anti-mouse/human CD45R/B220-BV 570 (clone RA3-6B2), anti-mouse CD138-BV711 (clone 281-2), […], anti-mouse IgD-PE-Cy7 (clone 11-26c.2a), anti-mouse Ly6G-FITC (clone IA8), anti-mouse Ly6C-BV711 (clone HK1.4), anti-mouse CD38-PerCP/Cy 5.5 (clone 90) anti-mouse IgM-AF488 (clone RMM-1), anti-mouse CD25-PE-Cy5 (clone PC61) plus zombie red (cell viability; Thermo Fisher Scientific), and mouse FcR blocker (anti-mouse CD16/CD32, clone 2.4G2; BD Biosciences). After surface staining, cells were fixed and permeabilized using the FOXP3/Transcription Factor Staining Buffer Set (eBioscience). Cells were stained with a combination of the following antibodies: anti-mouse FOXP3-efluor 450 (clone FJK-16S, 1:50; eBioscience), anti-mouse Granzyme B-BV421 (clone GB11), and anti-mouse NR4A1-PE (clone 12.14; eBioscience). Human cells were stained with a combination of the following antibodies: anti-human CD45-BV510 (clone H130), anti-human CD3-AF700 (clone HIT5a), anti-human CD4-BV421 (clone OKT4), anti-human CD8-BV711 (clone RPA-T8), anti-human CD127-BV605 (clone A019DS), anti-human CD25-PE-Cy7 (clone MA251) plus FVD-eFluor-780 (eBioscience), and human FcR blocking reagent (StemCell Technologies). Cells were washed then fixed and permeabilized using the eBioscience FOXP3/Transcription Factor Staining Buffer Set. […] Flow cytometry was performed on a three laser Cytek Aurora Cytometer (Cytek Biosciences) and analyzed using FlowJo software (BD Biosciences). […]

[2] = tested on: human CD8^+ Texh cells; assay: T cell exhaustion in vitro, human PBMC-derived T cells; type: cell-based; conditions: 500 nM, 48 h
Description: (§2) We conducted experiments involving the isolations and treatments of CD8^+ T cells from both OT-1 mice (C57BL/6-Tg(TcraTcrb)1100Mjb/J; Jackson Laboratories) and T cells from human PBMCs. CD8^+ T cells were isolated from OT-1 mice using the EasySep Mouse CD8 T Cell Isolation Kit, followed by daily treatment with 10 ng/ml ovalbumin (257–264) (S7951-1MG; Sigma-Aldrich) for specified durations. After 3 days of ovalbumin treatment, OT-1 CD8^+ T cells were activated, and after 7 days of treatment, they reached a state of exhaustion. Human T cells were isolated from PBMCs using the EasySep Human CD3 Positive Selection Kit II (17851; STEMCELL) and cultured with Dynabeads (Cell/Dynabeads: 1:1, A56992; Thermo Fisher Scientific) for 3 days to induce activation and for 7 days to induce exhaustion. Both mouse and human T cells received a treatment of 500 nM NR-V04 2 days prior to harvesting. To characterize the T cell subtypes, we employed specific flow cytometry antibodies and conducted flow cytometry analysis.
(§3) Mouse tumors were excised and ∼200 mg of tumor tissue was enzymatically and mechanically digested using the mouse Tumor Dissociation Kit (Miltenyi Biotec) to obtain a single-cell suspension. […] Flow cytometry was performed on a three laser Cytek Aurora Cytometer (Cytek Biosciences) and analyzed using FlowJo software (BD Biosciences). […]

[3] = tested on: OT-1 CD8^+ Texh cells; assay: T cell exhaustion in vitro, mouse OT-1 CD8^+ T cells; type: cell-based; conditions: 500 nM, 48 h
Description: as §2, §3

[4] = Toxicity testing in non-tumor-bearing mice; type: in vivo, C57BL/6J mice
Description: as §1
Mouse blood was prepared in microcentrifuge tubes containing PBS with 10 mM EDTA. Blood indices were analyzed using an automated hematology analyzer (Element HT5; Heska).
For H&E staining, mouse tissues were fixed in 10% formalin (SF98-4; Thermo Fisher Scientific) processed in the University of Florida Molecular Pathology Core. H&E staining was conducted using standard procedures. The sections were hydrated through xylene and a series of ethanol, followed by staining with H&E on slides.

CC1=C(O)C(=O)C=C2C1=CC=C1[C@@]2(C)CC[C@@]2(C)[C@@H]3C[C@](C)(C(=O)NCCOCCOCCOCCOCC(=O)N[C@H](C(=O)N4C[C@H](O)C[C@H]4C(=O)N[C@@H](C)c4ccc(-c5scnc5C)cc4)C(C)(C)C)CC[C@]3(C)CC[C@]12C [NR-V04]
B cells in the spleen and blood ([1]; B16F10 model, 2 doses of 1.8 mg/kg i.p.): no significant change
CD8^+ Texh cells in vivo ([1]; B16F10 tumors): did not observe a significant decrease in CD8^+ Texh cells
TI-B cells (B220^+ cells) ([1]; B16F10 tumors, 2 doses of 1.8 mg/kg i.p. on day 1 and day 4, collected day 7, vehicle 14.7%): 30.1%
effector memory CD8 T cells (CD44^+CD62L^− Tem) ([1]; spleen and tumors, B16F10 model, 2 doses of 1.8 mg/kg i.p.): increase in effector memory CD8 T cells
monocytic myeloid-derived suppressor cells (m-MDSC, CD11B^+Ly6C^+) ([1]; tumors and blood, B16F10 model, 2 doses of 1.8 mg/kg i.p.): decrease in monocytic myeloid-derived suppressor cells
CD8^+ Texh cells (CD8^+CTLA-4^+Tim3^+) [2]: significant reduction in CD8^+ Texh cells
CD8^+ Texh cells (PD1^+Tim3^+) [3]: significant reduction in CD8^+ Texh cells
histology (H&E) of kidney, liver and small intestine ([4]; male and female mice, day 42): did not induce tissue damage
body weight ([4]; male and female mice, two doses of 2 mg/kg and two doses of 5 mg/kg over 2 wk, 42 days): no significant change in body weight
hematological parameters (complete blood counts) ([4]; two doses of 2 mg/kg and two doses of 5 mg/kg, day 0, 7, 14, 42): no significant changes in hematological parameters
